From PubChem BioAssay AID1963962 (Molecular Pharmacology Branch, DTP, NCI, 2024)
One block for each compound: values may come before it.

Test system: 967376-340-R-J2-PDC multicell spheroid viability
Assay: Anticancer human tumor 967376-340-R-J2-PDC patient-derived colon adenocarcinoma cell line growth inhibition [PI3K]
Details: for viability, T/C: stronger effect = lower value
Source text: Combinatorial screen of targeted agents with the PI3K inhibitors inavolisib, alpelisib, duvelisib, and copanlisib in multi-cell type tumor spheroids
A high-throughput screen of multi-cell type tumor spheroids was designed to identify active combinations of targeted small molecules and PI3K pathway inhibitors. Complex spheroids include a stromal component modeled by human endothelial cells (HUVEC) and fibroblasts modeled by human mesenchymal stem cells (MSCs). The concentration ranges selected for each drug and investigational agent were based upon clinically achievable concentrations if the clinical Cmax of the agent was known.
Compounds. The drugs and investigational agents: inavolisib (NSC800729), alpelisib (NSC765974), duvelisib (NSC772469), copanlisib (NSC816437), ipatasertib (NSC767898), afuresertib (NSC778305), talazoparib (NSC767125), sapanisertib (NSC764658), selumetinib (NSC741078), tovorafenib (DAY101, NSC766906), vemurafenib (NSC761431), ravoxertinib (NSC781343), sotorasib (NSC818433), MRTX1133 (NSC 836407), abemaciclib (NSC 768073), palbociclib (NSC758247), venetoclax (NSC 766270), SY5609 (NSC837396), enzalutamide (NSC755605), and darolutamide (NSC825331), were obtained from the National Cancer Institute (NCI) Developmental Therapeutics Program Chemical Repository. The FDA-approved anticancer drug set is available from the NCI Developmental Therapeutics Program. […] The stock solutions were prepared in dimethyl sulfoxide (DMSO, Sigma-Aldrich, St. Louis, MO, cat. D2650) at 800-fold the tested concentration and stored at -70 degrees C prior to their use. All drugs and investigational agents were tested over a range starting from a high concentration at or near the clinical Cmax and decreasing in half-log increments. If the clinical Cmax for an agent had not been determined, the highest concentration tested was 10 microM.
Cell Culture. All cells were maintained in an incubator at 37 degrees C and 5% CO2 with 95% humidity. The PDC lines were cultured according to standard operating procedures established by the NCI PDMR (https://pdmr.cancer.gov/sops/default.htm). All PDCs were thawed and cultured in Matrigel-coated flasks prepared with a working solution of 1X Ham's F-12 nutrient mix, without supplementation (Invitrogen, Waltham, MA, cat. 11765054), 100 U/mL penicillin-streptomycin (Invitrogen, cat. 15140122), and 2.5% Matrigel (Corning Inc., Corning, NY, cat. 354248) for the first three passages. The 354836-022-R-J1-PDC, 475296-252-R-J1-PDC, and 997726-040-R-J2-PDC lines were cultured in 6A media, which includes advanced DMEM/F-12 (Thermo Fisher Scientific, cat. 12634028), 10 mM HEPES (Thermo Fisher Scientific, cat. 15630080), 1X GlutaMAX supplement (Thermo Fisher Scientific, cat. 35050061), 0.1 mg/mL primocin (InvivoGen, San Diego, CA, cat. ant-pm-2), 10% defined fetal bovine serum, heat inactivated (HyClone Laboratories Inc., Logan, UT, cat. SH30070.03HI), 50% L-WRN conditioned media (ATCC, cat. CRL-3276), 1.25 mM N-Acetyl-L-cysteine (Sigma-Aldrich, cat. A9165), 10 mM nicotinamide (Sigma-Aldrich, cat. N0636), 1X B-27 supplement (Thermo Fisher Scientific, cat. 17504044), 1X N-2 supplement (Thermo Fisher Scientific, cat. 17502048), and 10 microM Y-27632 dihydrochloride (Tocris Bioscience, Bristol, United Kingdom, cat. 1254). The 624824-186-R-J2-PDC line was cultured in 6C/Colon 1B media, which includes all 6A media components plus 50 ng/mL human EGF recombinant protein (Thermo Fisher Scientific, cat. PHG0311). […]

[1] = curve of first compound, second compound 0.0316 µM
[2] = curve of first compound, second compound 0.1 µM
[3] = curve of first compound, second compound 0.316 µM
[4] = curve of first compound, second compound 1 µM
[5] = second compound 0.0316 µM, first compound 0.0316 µM
[6] = second compound 0.0316 µM, first compound 0.1 µM
[7] = second compound 0.0316 µM, first compound 0.316 µM
[8] = second compound 0.0316 µM, first compound 1 µM
[9] = second compound 0.0316 µM, first compound 3.16 µM
[10] = second compound 0.0316 µM, first compound 10 µM
[11] = second compound 0.1 µM, first compound 0.0316 µM
[12] = second compound 0.1 µM, first compound 0.1 µM
[13] = second compound 0.1 µM, first compound 0.316 µM
[14] = second compound 0.1 µM, first compound 1 µM
[15] = second compound 0.1 µM, first compound 3.16 µM
[16] = second compound 0.1 µM, first compound 10 µM
[17] = second compound 0.316 µM, first compound 0.0316 µM
[18] = second compound 0.316 µM, first compound 0.1 µM
[19] = second compound 0.316 µM, first compound 0.316 µM
[20] = second compound 0.316 µM, first compound 1 µM
[21] = second compound 0.316 µM, first compound 3.16 µM
[22] = second compound 0.316 µM, first compound 10 µM
[23] = second compound 1 µM, first compound 0.0316 µM
[24] = second compound 1 µM, first compound 0.1 µM
[25] = second compound 1 µM, first compound 0.316 µM
[26] = second compound 1 µM, first compound 1 µM
[27] = second compound 1 µM, first compound 3.16 µM
[28] = second compound 1 µM, first compound 10 µM
[29] = curve of first compound, second compound 3.16 µM
[30] = curve of first compound, second compound 10 µM
[31] = second compound 3.16 µM, first compound 0.0316 µM
[32] = second compound 3.16 µM, first compound 0.1 µM
[33] = second compound 3.16 µM, first compound 0.316 µM
[34] = second compound 3.16 µM, first compound 1 µM
[35] = second compound 3.16 µM, first compound 3.16 µM
[36] = second compound 3.16 µM, first compound 10 µM
[37] = second compound 10 µM, first compound 0.0316 µM
[38] = second compound 10 µM, first compound 0.1 µM
[39] = second compound 10 µM, first compound 0.316 µM
[40] = second compound 10 µM, first compound 1 µM
[41] = second compound 10 µM, first compound 3.16 µM
[42] = second compound 10 µM, first compound 10 µM
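Also: spheroids exposed to agents for 7 days before read-out.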
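For viability, T/C in this document: luminescence used as surrogate of cell viability.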

IC50 (curve of first compound, second compound 0.00316 µM): > 10 µM | IC50 (curve of first compound, second compound 0.01 µM): > 10 µM | IC50 [1]: > 10 µM | IC50 [2]: > 10 µM | IC50 [3]: 7.82 µM | IC50 [4]: 4.85 µM
SMILES: CC1(C)CCC(CN2CCN(c3ccc(C(=O)NS(=O)(=O)c4ccc(NCC5CCOCC5)c([N+](=O)[O-])c4)c(Oc4cnc5[nH]ccc5c4)c3)CC2)=C(c2ccc(Cl)cc2)C1 + CC(Nc1ccc2c(c1)OCCn1cc(N3C(=O)OCC3C(F)F)nc1-2)C(N)=O
viability, T/C (second compound 0.00316 µM, first compound 0.0316 µM): 106% | viability, T/C (second compound 0.00316 µM, first compound 0.1 µM): 67.9% | viability, T/C (second compound 0.00316 µM, first compound 0.316 µM): 97.2% | viability, T/C (second compound 0.00316 µM, first compound 1 µM): 98% | viability, T/C (second compound 0.00316 µM, first compound 3.16 µM): 102% | viability, T/C (second compound 0.00316 µM, first compound 10 µM): 61.1% | viability, T/C (second compound 0.01 µM, first compound 0.0316 µM): 107% | viability, T/C (second compound 0.01 µM, first compound 0.1 µM): 75.7% | viability, T/C (second compound 0.01 µM, first compound 0.316 µM): 79.9% | viability, T/C (second compound 0.01 µM, first compound 1 µM): 78.6% | viability, T/C (second compound 0.01 µM, first compound 3.16 µM): 81.2% | viability, T/C (second compound 0.01 µM, first compound 10 µM): 57.3% | viability, T/C [5]: 67.3% | viability, T/C [6]: 86.5% | viability, T/C [7]: 82.2% | viability, T/C [8]: 88.9% | viability, T/C [9]: 75.9% | viability, T/C [10]: 81.5% | viability, T/C [11]: 70.6% | viability, T/C [12]: 80.5% | viability, T/C [13]: 79.1% | viability, T/C [14]: 84.7% | viability, T/C [15]: 95.7% | viability, T/C [16]: 58.8% | viability, T/C [17]: 68.3% | viability, T/C [18]: 81.5% | viability, T/C [19]: 58.2% | viability, T/C [20]: 76.2% | viability, T/C [21]: 71.2% | viability, T/C [22]: 44.5% | viability, T/C [23]: 56.7% | viability, T/C [24]: 48.1% | viability, T/C [25]: 57.2% | viability, T/C [26]: 49.9% | viability, T/C [27]: 67.8% | viability, T/C [28]: 36.2%

IC50 (curve of compound): > 10 µM
SMILES: Cn1ncc(Cl)c1-c1cc(C(=O)NC(CN)Cc2cccc(F)c2)sc1Cl (stereo unspecified)
viability, T/C (compound 0.0316 µM): 107% [middle of 4 runs] | viability, T/C (compound 0.316 µM): 91.2% [middle of 4 runs] | viability, T/C (compound 3.16 µM): 81.3% [middle of 4 runs] | viability, T/C (compound 10 µM): 76.4% [middle of 4 runs]

IC50 [1]: 3.81 µM | IC50 [2]: 6.06 µM | IC50 [3]: 3.95 µM | IC50 [4]: 0.629 µM | IC50 [29]: 0.386 µM | IC50 [30]: 0.0432 µM
SMILES: CC1(C)CCC(Nc2ncc(C(F)(F)F)c(-c3c[nH]c4c(P(C)(C)=O)c(C#N)ccc34)n2)CN1 (stereo unspecified) + Cc1nc(NC(=O)N2CCCC2C(N)=O)sc1-c1ccnc(C(C)(C)C(F)(F)F)c1
viability, T/C [5]: 82.8% | viability, T/C [6]: 72.5% | viability, T/C [7]: 55.6% | viability, T/C [8]: 54.7% | viability, T/C [9]: 61.5% | viability, T/C [10]: 40.8% | viability, T/C [11]: 78.4% | viability, T/C [12]: 68.8% | viability, T/C [13]: 69.7% | viability, T/C [14]: 66.8% | viability, T/C [15]: 63% | viability, T/C [16]: 41.2% | viability, T/C [17]: 67.5% | viability, T/C [18]: 73.3% | viability, T/C [19]: 48.5% | viability, T/C [20]: 58.5% | viability, T/C [21]: 60.4% | viability, T/C [22]: 39.2% | viability, T/C [23]: 51.6% | viability, T/C [24]: 53.8% | viability, T/C [25]: 72.8% | viability, T/C [26]: 43.6% | viability, T/C [27]: 45.5% | viability, T/C [28]: 34.1% | viability, T/C [31]: 58.9% | viability, T/C [32]: 51.2% | viability, T/C [33]: 49.4% | viability, T/C [34]: 47.3% | viability, T/C [35]: 41.4% | viability, T/C [36]: 30.7% | viability, T/C [37]: 54.8% | viability, T/C [38]: 39.1% | viability, T/C [39]: 39.6% | viability, T/C [40]: 34.9% | viability, T/C [41]: 31.4% | viability, T/C [42]: 23.3%

IC50 [1]: > 10 µM | IC50 [2]: > 10 µM | IC50 [3]: > 10 µM | IC50 [4]: > 10 µM | IC50 [29]: > 10 µM | IC50 [30]: > 10 µM
SMILES: CNC(=O)c1ccc(N2C(=S)N(c3ccc(C#N)c(C(F)(F)F)c3)C(=O)C2(C)C)cc1F + CC(Nc1ncnc2nc[nH]c12)c1cc2cccc(Cl)c2c(=O)n1-c1ccccc1
viability, T/C [5]: 140% | viability, T/C [6]: 88.7% | viability, T/C [7]: 92% | viability, T/C [8]: 101% | viability, T/C [9]: 134% | viability, T/C [10]: 88.3% | viability, T/C [11]: 109% | viability, T/C [12]: 109% | viability, T/C [13]: 94.2% | viability, T/C [14]: 104% | viability, T/C [15]: 99.3% | viability, T/C [16]: 73.1% | viability, T/C [17]: 89.6% | viability, T/C [18]: 104% | viability, T/C [19]: 82.2% | viability, T/C [20]: 92% | viability, T/C [21]: 106% | viability, T/C [22]: 105% | viability, T/C [23]: 81.4% | viability, T/C [24]: 80.3% | viability, T/C [25]: 72.3% | viability, T/C [26]: 86.1% | viability, T/C [27]: 113% | viability, T/C [28]: 88.5% | viability, T/C [31]: 78.5% | viability, T/C [32]: 89% | viability, T/C [33]: 82% | viability, T/C [34]: 80.1% | viability, T/C [35]: 102% | viability, T/C [36]: 87.5% | viability, T/C [37]: 63.9% | viability, T/C [38]: 83.7% | viability, T/C [39]: 70% | viability, T/C [40]: 70.6% | viability, T/C [41]: 92.3% | viability, T/C [42]: 77.4%
